From patent US20080038321A1, “PROPHYLACTIC/THERAPEUTIC COMPOSITIONS FOR LIVER DISEASES” (Ajinomoto Co., Inc., priority 2004, published 2008)
“Also recorded” adds a separate entry of the source.

Columns and labels:
TRB3 [1] = assay: Liver gene expression in high-fat diet GK rats after 6-week administration (quantitative PCR): TRB3; assay type: in vivo, rat
From the text: (§1) The mRNA levels are expressed while defining the level in the SD group as 1.00. <Primer Sequence>

GK rats = assay: Long-term L-Asp in diet to GK rats: fasting blood glucose and insulin; assay type: in vivo, rat; details: 3% L-Asp-containing diet (3AS), 6 weeks, n = 5, mean ± SD
Experimental: (§2) Specifically, L-Asp as mixed in a diet was administered to GK rats over a long time, and the effect of the administration on gene expression in the liver and disease state was determined.
(§3) Male 6-week-old GK rats were purchased, pre-fed for one week, grouped into the following groups each including five rats, the diet was replaced with experimental diets, and the rats were fed with the experimental diets for eight weeks.
CON group: administered with a control diet
3AS group: administered with a 3% L-Asp-containing diet
6AS group: administered with a 6% L-Asp-containing diet
The fasting blood glucose level is generally considered to be an index reflecting the basal insulin secretion and the insulin resistance.

[2] = test system: stearoyl-Coenzyme A desaturase 1 (SCD1) gene; assay: Liver gene expression profiling in GK rats (Gene Chip Rat Genome U34A Array): SCD1; assay type: in vivo; details: 8 weeks, CON group = 1.00
Experimental: Gene expression profiling was conducted using samples containing equivalent amounts of genes in the liver of individuals in the individual groups. The gene expression profiling was carried out with the Gene Chip Rat Genome U34A Array (Affymetrix Inc.). […] This is because the two genes relate to steatogenesis.
The mRNA levels are expressed while defining the level in the CON group as 1.00.

[3] = test system: Wistar rats fed with high-fat diets; assay: Wistar rats fed with high-fat diets: body weight and liver triglyceride; assay type: in vivo, rat
From the text: Pharmacological actions of L-Asp were identified using Wistar rats fed with high-fat diets.
These triglyceride contents were converted into total triglyceride contents in the entire liver.

TRB3 [4] = assay: Suppressive effects of amino acids on TRB3 expression in cultured hepatocytes (Fao cells, quantitative PCR); assay type: cell-based, rat; details: other experiments; 0.03 mM to 0.3 mM
[5] = test system: GK rats fed with high-fat diets; assay: GK rats fed with high-fat diets: body weight, fasting glucose, insulin, triglyceride, liver triglyceride
TRB3 [6] = assay: Suppressive effects of amino acids on TRB3 expression in cultured hepatocytes (Fao cells, quantitative PCR); assay type: cell-based, rat; details: 3 h, minus amino acid medium plus one L-amino acid 1 mM (or standard medium), mRNA, minus amino acid medium = 1.00, n = 4, mean ± SD
Experimental: Suppressive effects of twenty-two amino acids on TRB3 expression in rat hepatic cancer-derived Fao cells were examined.
The standard medium is a medium corresponding to the minus amino acid medium, except for further containing amino acids listed in Table 2.
RNAs were extracted from the cultured cells, the expression levels of TRB3 gene were determined through quantitative polymerase chain reaction (PCR), and the suppressive effects of amino acids on TRB3 expression were determined and compared with data of TRB3 expression induced upon amino acid starvation. The gene expression was corrected with reference to β-actin expression level. The correction was carried out in the same manner in the after-mentioned genes.
The data were corrected and expressed while taking the average of TRB3 mRNA levels after three-hour cultivation in the minus amino acid medium as 1.00.

ACO = assay: Liver gene expression in high-fat diet GK rats after 6-week administration (quantitative PCR): ACO; assay type: in vivo, rat
From the text: as §1

TRB3 [7] = assay: TRB3 mRNA in Fao cells with L-Asp, L-Ala or both (quantitative PCR); assay type: cell-based, rat; details: 3 h, L-Asp 0.05 mM, L-Ala 0.03 mM or both
Experimental: Whether the suppressive effect of L-Asp on TRB3 expression in rat hepatocyte-derived Fao cells is increased by adding L-Ala as another amino acid was studied. Whether the expression of HNF-4α is increased was also studied. Fao cells were inoculated on a 24-well plate to an amount of 2×10^5 cells/well, and the cells were cultivated in a 10% fetal bovine serum-containing RPMI 1640 medium (supplied from Nacalai Tesque, Inc.; Code No. 30264-85) at 37° C. in an atmosphere of 5% CO2 overnight. On the following day, the medium was replaced with one of a 10% fetal bovine serum-containing RPMI medium from which all amino acids had been removed (minus amino acid medium; Table 1) and media corresponding to the minus amino acid medium, except with L-Asp (concentration: 0.05 mM), L-Ala (concentration: 0.03 mM), or both added, and the cells were further cultivated at 37° C. in 2.5% CO2 atmosphere for three hours. RNAs were extracted from the cultured cells, and the TRB3 mRNA levels and the HNF-4α mRNA levels were determined through quantitative polymerase chain reaction (PCR) (Table 10).

[8] = test system: glucose-6-phosphatase (G6Pase); assay: Effect of L-Asp on G6Pase expression suppressive action of insulin in Fao cells (quantitative PCR); assay type: cell-based, rat; details: for G6Pase expression level: 6 h, -Asp RPMI without insulin = 1.00; for G6Pase expression level (value in parentheses): -Asp RPMI at same insulin concentration = 1.00
Experimental: To verify whether an amino acid showing a TRB3 expression suppressive action actually increases the insulin action on hepatocytes, how L-Asp acts on glucose-6-phosphatase (G6Pase) expression suppressive action of insulin in rat hepatic cancer-derived Fao cells was studied.
Fao cells were inoculated on a 24-well plate and cultured overnight. Thereafter, 0, 0.3, and 1.0 mM L-Asp and 0, 10^−10, 10^−8, and 10^−6 M insulin were added respectively to a basal medium corresponding to RPMI 1640 medium containing no glucose but 0.1% BSA, except with L-Asp being removed therefrom, and the cells were further cultivated for six hours. RNAs were extracted from the cultured cells, and the expression levels of G6Pase were determined through quantitative PCR.
The G6Pase expression level in −Asp RPMI medium added with no insulin is defined as 1.00.
The values in the parentheses are values while defining the G6Pase expression levels in −Asp RPMI medium at respective insulin concentrations as 1.00, respectively.

G6Pase = assay: Liver gene expression in GK rats after 8 weeks L-Asp diet (quantitative PCR): G6Pase; assay type: in vivo, rat; details: 3% L-Asp diet (3AS), CON group = 1.00
Experimental: as §2, §3
On week eight of administration, the liver was extirpated after eighteen-hour fasting, RNAs were extracted, and the gene expressions were determined through quantitative PCR and compared.

[9] = before administration (baseline), HFD with about 6% L-Asp or 0.01% pioglitazone
[10] = week 3, HFD with about 6% L-Asp or 0.01% pioglitazone
[11] = week 6, HFD with about 6% L-Asp or 0.01% pioglitazone

## N[C@@H](CC(=O)O)C(=O)O [L-Asp, L-aspartic acid]
TRB3 [1]; HFD + Asp, HFD = 1.00 in table, n = 6, mean
  TRB3 mRNA level in liver: 0.58
TRB3 [1]; HFD plus Asp group
  TRB3 expression relative to HFD group: 0.58 time
GK rats
  Fasting blood glucose level: 151 ± 4.8 mg/dL
[2]; 3% L-Asp diet (3AS)
  SCD1 mRNA level in liver: 0.78
[2]; 6% L-Asp diet (6AS)
  SCD1 mRNA level in liver: 0.71
[3]; before administration (baseline), HFD plus about 6% L-Asp, n = 6
  Body weight: 328 ± 9 g
[3]; four weeks, HFD plus Asp group, HFD group 57.6
  triglyceride content: 43.4 mg per 1 g of the liver
[3]; four weeks, HFD plus Asp group, HFD group 1047.5
  total triglyceride content in the liver: 743.4 mg
[3]; week 4, HFD plus about 6% L-Asp
  Triglyceride content in liver: 43 ± 10 mg/g
[3]; week 4, HFD plus about 6% L-Asp, n = 6
  Body weight: tended to have a decreased body weight
[3]; week 4, HFD plus about 6% L-Asp, n = 6, listed as Asp
  Body weight: 474 ± 20 g
TRB3 [4]
  suppression of TRB3 expression: significantly suppresses the TRB3 expression
[5]; HFD plus Asp group
  lipid droplet accumulation around the hepatic portal vein region (histological study): improved (reduced) lipid droplet accumulation
[5]; HFD plus Asp group compared with HFD group
  increase in fasting blood glucose level and fasting plasma insulin level (insulin resistance): less increase in these parameters; also recorded: substantially equivalent to that of the pioglitazone group
[5]; HFD plus Asp group compared with SD group
  fasting plasma triglyceride: decreased fasting plasma triglyceride
[5]; [9]
  Fasting blood glucose level: 100 ± 8 mg/dL
  Fasting insulin level: 0.5 ± 0.3 ng/mL
  Fasting triglyceride level: 92 ± 20 mg/dL
[5]; [10]
  Fasting blood glucose level: 124 ± 7 mg/dL
  Fasting insulin level: 1.6 ± 0.4 ng/mL
  Fasting triglyceride level: 77 ± 14 mg/dL
[5]; [11]
  Fasting blood glucose level: 110 ± 10 mg/dL
  Fasting insulin level: 1.5 ± 0.2 ng/mL
  Fasting triglyceride level: 70 ± 16 mg/dL
  Triglyceride content in liver: 28 ± 5 mg/g
TRB3 [6]
  TRB3 expression level: 0.724 ± 0.13
TRB3 [6]; listed as aspartic acid
  TRB3 expression level: significantly suppressed TRB3 expression
ACO; HFD + Asp, 6-week administration, HFD = 1.00 in table, n = 6, mean
  ACO mRNA level in liver: 1.18
ACO; L-Asp administration, 6 weeks, HFD
  ACO gene expression: 1.18 time
TRB3 [7]; minus amino acid medium = 1.00
  TRB3 mRNA level: 0.54
TRB3 [7]; of minus amino acid medium
  expression level of TRB3 mRNA: 54%
[8]; 0.3 mM Asp, insulin 0 M
  G6Pase expression level: 0.603
  G6Pase expression level (value in parentheses): 0.60
[8]; 0.3 mM Asp, insulin 10^-6 M
  G6Pase expression level: 0.014
  G6Pase expression level (value in parentheses): 0.60
[8]; 0.3 mM Asp, insulin 10^-8 M
  G6Pase expression level: 0.022
  G6Pase expression level (value in parentheses): 0.70
[8]; 0.3 mM Asp, insulin 10^-10 M
  G6Pase expression level: 0.100
  G6Pase expression level (value in parentheses): 0.67
[8]; 1 mM Asp, insulin 0 M
  G6Pase expression level: 0.397
  G6Pase expression level (value in parentheses): 0.40
[8]; 1 mM Asp, insulin 10^-6 M
  G6Pase expression level: 0.008
  G6Pase expression level (value in parentheses): 0.36
[8]; 1 mM Asp, insulin 10^-8 M
  G6Pase expression level: 0.016
  G6Pase expression level (value in parentheses): 0.52
[8]; 1 mM Asp, insulin 10^-10 M
  G6Pase expression level: 0.076
  G6Pase expression level (value in parentheses): 0.51
[8]; L-Asp alone, glucose starvation
  G6Pase expression suppressive action: G6Pase expression suppressive action even if used alone
[8]; L-Asp in combination with insulin
  G6Pase expression suppression: increased G6Pase expression suppression when used in combination with insulin
G6Pase
  G6Pase mRNA level in liver: 0.99 ± 0.15
